Among the data in patent US20120095024A1, “TOLUIDINE SULFONAMIDES AND THEIR USE” (Elara Pharmaceuticals GmbH, priority 2008, published 2012) are EC50, IC50 and inhibition values, retold here.

Some results are limits rather than exact numbers.

For one assay, the system named is MCF7 cells. Description: Cell proliferation assay (ATPlite), MCF-7. It counts as cell-based, human. Particulars: Homo sapiens, inhibition of cell proliferation, 72 h. An outline of the steps: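 Cells seeded (MCF-7 2000/well, HG-1 1000/well in RPMI with 2 ng/ml IL-6), then after 24 h exposed to compound at 0.5% DMSO final for 72 h. Proliferation read as ATP luminescence (ATPlite); EC50 calculated from the dose-response.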
Background: In ATP-based viability assays light output follows the ATP content of the culture.

Assay [1] relates to estrogen receptor (ER)-mediated transcriptional activity. Description: Inhibition of estrogen receptor (ER) signaling, ERE-tk-luc transfection assay in MCF-7 cells. It counts as cell-based. The following applies: Homo sapiens, MCF7, ERE-tk-luc luciferase readout, 24 h. As to the method: To determine the effect of the compounds on estrogen receptor (ER)-mediated transcriptional activity a transfection assay using the MCF-7 cell line was performed. A luciferase-coupled ERE-tk-luc construct was obtained from Dr. G. Reid (EMBL).
In brief, MCF-7 cells were maintained as described previously and seeded on the first experimental day at a concentration of 3500 cells/well in 100 μl medium and incubated under standard conditions for 24 h. Following this initial incubation period, transfection was carried out using 5 ng of the ERE-tk-luc construct (per well) and Exgene 500 transfection reagent (Fermentas) in a final buffered solution containing 150 mM NaCl and 20 mM Tris pH 8.4. The plates were then maintained for 3-4 hours until cell culture conditions in the incubator before compounds were added at 11× concentrations to yield the final desired compound concentrations in 0.5% DMSO (in the same manner as for the proliferation assays described previously).
After an additional 24 h incubation period the degree of inhibition of ER-signaling was determined via a luciferase readout. Cells were treated with Britelite™ plus solution according to the manufacturer's instructions (PerkinElmer, britelite plus, Ultra-High Sensitivity Luminescence Reporter Gene Assay System) and luciferase levels measured on an Envision HTS multilabel plate reader (PerkinElmer) in luminescence mode according to established protocols. Raw data were imported into an ActivityBase database (IDBS, ID Business Solutions) and IC50 values calculated using the IDBS program ActivityBase XE.

A further assay concerns the target T1, tubulin (Sus scrofa, UniProt P02550+P02554).
T1 construct: prepared in-house from porcine brain using a standard procedure involving cycles of polymerization/de-polymerization; from tissue; host or cells: porcine brain
Description: Inhibition of in vitro tubulin polymerization. It counts as biochemical, porcine. Particulars: final absorbance 340 nm at 90 min. The method, then:
To assess the degree of inhibition of in vitro tubulin polymerization, a tubulin solution (prepared in-house from porcine brain using a standard procedure involving cycles of polymerization/de-polymerization, see Castoldi & Popov (2003) Protein Expr. Purif. 32(1): 83-88) was incubated with varying concentrations of compounds under polymerizing conditions and kinetic experiments performed to determine the amount of polymerization (as measured by changes in OD at 340 nm) taking place over a 90 min period.
Compound solutions were diluted in double-distilled water to yield final 10× solutions containing 5% DMSO. 5 μl solutions were then added to the wells on a 384-well clear-bottom plate (Corning #3711, Corning Inc.) in preparation for the addition of tubulin. The tubulin solution (19.6 mg/ml, in 80 mM K-PIPES [pH 6.8], 1 mM MgCl2, 1 mM EGTA) was re-suspended to a final concentration of 4 mg/ml with ice cold G-PEM buffer (80 mM PIPES [pH 6.8], 2 mM MgCl2, 0.5 mM EGTA, 10% glycerol, 1 mM GTP) and maintained on ice for at least 1 min. 50 μl was then added to the pre-dispensed compound solutions, the plate orbital shaken on a medium setting for 5 s, and the first measurement begun immediately.
Experiments were carried out on a Safire^2™ monochromator (Tecan) preset to a stable temperature of 37° C.; the degree of polymerization was determined by measuring the absorbance of the solutions at 340 nm every minute over the 90 min cycle. Reported inhibition values were based on the final absorbance at 90 min and calculated with reference to a vehicle control (0.5% DMSO) using the minimum and maximum signals obtained for this sample.

For the next assay, the system named is caspase-3/7. Briefly: Activation of apoptosis, Caspase-Glo 3/7 in HG-1 cells. It counts as cell-based. Particulars: caspase-3/7 activation, 24 h. The method, then: Activation of caspase-3/7 signal following treatment with test compounds was carried out using a Caspase-Glo® 3/7 kit (Promega). In brief, HG-1 cells were seeded at a concentration of 1000 cells/well in 50 μl medium into 96-well plates and incubated for 24 h under the conditions described previously. Compounds at various concentrations were then added to the wells (at all final concentrations 0.5% DMSO) and incubated for a further 24 h period. The plates were subsequently removed from the incubator and allowed to equilibrate to room temperature, after which 50 μl Caspase-Glo reagent was added to all wells, the plate shaken at 300 rpm for 30 s, and luminescence measured after a 30 min incubation period on an Envision HTS (PerkinElmer).

The subject of the next assay is HG1 cells. Description: Cell proliferation assay (ATPlite), HG-1. It counts as cell-based. The following applies: inhibition of cell proliferation, 72 h. The method, then: MCF-7 human breast adenocarcinoma cells and HL-60 acute promyelocytic leukaemia cells were obtained from ATCC (LGC Promochem). HG-1 multiple myeloma cells were obtained from Dr. D. Hose (DKFZ Heidelberg). The CellSensor® HRE-bla HCT116 cell line (colorectal carcinoma) was obtained from Invitrogen.
Cells were grown under humidified 95% air, 5% CO2 at 37° C. in Dulbecco's modified Eagle's medium (DMEM: MCF-7) or RPMI 1640 medium (RPMI: HL-60, HG-1) supplemented with 10% fetal bovine serum (FBS), 100 U/ml penicillin and 100 μg/ml streptomycin, 2 mM L-glutamine, and 2 ng/ml IL-6 (for the HG-1 cell line only). The HCT116 cell line was grown under the same atmospheric conditions in McCoy's 5A medium supplemented with 10% FBS and penicillin/streptomycin as above, in addition to blasticidin as a selection marker at a final concentration of 5 μg/ml.
Cell proliferation experiments were carried out in 96-well tissue culture plates with seeding of 2000 cells/well (MCF-7) or 1000 cells/well (HL-60, HG-1) in 100 μl of the relevant medium. Cells were subsequently incubated under the conditions mentioned for 24 h prior to addition of compounds.
For the determination of compound EC50 values, 10 μl compounds at 11× concentrations in 5.5% DMSO were added to the wells at various concentrations yielding a final constant percentage of 0.5% DMSO at the desired 1× compound concentration. As a positive control, cells were treated with 5.5% DMSO. The cells were then incubated for a further 72 h prior to the measurement.
To determine the degree of inhibition of cell proliferation, cells were treated with ATPlite solution according to the manufacturer's instructions (PerkinElmer, ATPlite 1-step Luminescence ATP Detection Assay System) and luciferase readout measured on an Envision HTS multilabel plate reader (PerkinElmer) in luminescence mode according to established protocols. Raw data were imported into an ActivityBase database (IDBS, ID Business Solutions) and EC50 values calculated using the IDBS program ActivityBase XE. Table 2A and 2B show the IC50 values obtained in the above-outlined cell proliferation assay for exemplary compounds of the invention.

Assay [2] concerns HIF mediated transcription. Briefly: Inhibition of activation of HIF mediated transcription under hypoxic conditions (CellSensor HRE-bla HCT-116). It counts as cell-based. The following applies: Homo sapiens; HRE-bla HCT-116 cells, deferoxamine-induced hypoxia, 24 h. As to the method:
Inhibition of an activated HIF signaling response under chemically-induced hypoxic conditions due to compound treatment was determined using the CellSensor® HRE-bla HCT-116 stably transfected reporter cell line from Invitrogen according to the manufacturer's instructions. HIF is a transcriptional factor composed of the constitutively expressed HIF1β subunit and one of three HIFα subunits (HIF1α, HIF2α, HIF3α). This assay is responsive towards HIFa activity in general. In one example, HIF-1, when stabilized by hypoxic conditions, upregulates several genes to promote cell survival in low-oxygen conditions. These include glycolysis enzymes, which allow ATP synthesis in an oxygen-independent manner, and vascular endothelial growth factor (VEGF), which promotes angiogenesis. HIF-1 acts by binding to HIF-responsive elements (HREs) in promoters that generally contain the sequence NCGTG.
Cells were maintained as described previously and seeded into 384-well, clear-bottom plates (Corning 3712) at 15000 cells/well in 32 μl assay medium (Opti-MEM [Invitrogen], 0.5% FBS, 100 U/ml penicillin, 100 μg/ml streptomycin, 0.1 mM non-essential amino acids [NEAA], 1 mM sodium pyruvate, 5 mM HEPES [pH 7.3]). Following a 2 h incubation period, compounds (4 μl) were subsequently added to the cells at 10× concentrations in 5% DMSO and incubated under normal conditions for 30 min. To induce hypoxic conditions, 4 μl of a 2 mM deferoxamine (DFO) solution was added to the cells followed by 24 h incubation under standard assay conditions (as described). Control wells included wells containing only medium (no cells) and wells treated with 0.5% DMSO instead of compound.
Prior to the readout, the Substrate Loading Solution was prepared as described in the manufacturer's protocol and 10 μl added to each well. Following a further 2 h incubation period at room temperature and in the dark, fluorescence was measured at two wavelengths (blue channel: ex. 409 nm, em. 460 nm; green channel: ex. 409 nm, em. 530 nm) on a PerkinElmer Envision HTS. For the analysis, the average signal of the cell-free wells at 460 nm and 530 nm was first subtracted from the blue and green channel data, respectively. The blue/green emission ratios were then calculated for each well, dividing the background-corrected blue emission values by the background-corrected green emission values. IC50 values were determined from these ratios using GraphPad Prism (Prism 5, GraphPad software, Inc.).

T1 sequence (P02550 whole entry): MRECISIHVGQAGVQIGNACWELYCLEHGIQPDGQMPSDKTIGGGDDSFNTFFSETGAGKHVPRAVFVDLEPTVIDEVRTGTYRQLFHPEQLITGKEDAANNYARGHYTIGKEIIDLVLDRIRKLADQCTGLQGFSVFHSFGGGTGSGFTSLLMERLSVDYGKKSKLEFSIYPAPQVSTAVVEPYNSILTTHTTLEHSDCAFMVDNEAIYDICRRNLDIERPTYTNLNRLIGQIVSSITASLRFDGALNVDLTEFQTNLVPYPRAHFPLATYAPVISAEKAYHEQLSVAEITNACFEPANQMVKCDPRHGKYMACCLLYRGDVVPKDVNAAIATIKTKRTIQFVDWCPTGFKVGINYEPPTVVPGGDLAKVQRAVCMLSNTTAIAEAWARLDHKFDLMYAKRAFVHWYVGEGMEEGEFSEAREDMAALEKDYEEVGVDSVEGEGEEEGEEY
T1 sequence (P02554 whole entry): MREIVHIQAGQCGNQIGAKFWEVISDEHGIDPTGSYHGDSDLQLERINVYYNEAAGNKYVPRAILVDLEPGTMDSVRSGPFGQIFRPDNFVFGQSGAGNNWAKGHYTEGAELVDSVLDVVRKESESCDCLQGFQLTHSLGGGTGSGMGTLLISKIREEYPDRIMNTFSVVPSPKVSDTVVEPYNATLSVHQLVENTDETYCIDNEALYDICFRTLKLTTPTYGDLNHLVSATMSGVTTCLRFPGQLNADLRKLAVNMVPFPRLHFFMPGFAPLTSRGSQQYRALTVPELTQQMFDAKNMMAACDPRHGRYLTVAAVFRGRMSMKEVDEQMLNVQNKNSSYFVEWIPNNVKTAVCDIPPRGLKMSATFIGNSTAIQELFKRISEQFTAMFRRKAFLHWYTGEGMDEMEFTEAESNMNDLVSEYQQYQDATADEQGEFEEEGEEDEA

`Cc1ccc(S(=O)(=O)Nc2cc(-c3ccc(C#N)cc3)ccc2C)cc1` [Example 60, N-(4′-Cyano-4-methyl-biphenyl-3-yl)-4-methyl-benzenesulfonamide]: the EC50 with MCF7 cells and with caspase-3/7 was less than 500 nM in each case. The concentration for half-maximal inhibition (IC50) in assay [1] is less than 500 nM. Also, the inhibition at 10 µM on tubulin was less than 20%.
As to `COc1ccc(S(=O)(=O)Nc2cc(-c3csc(C#N)c3)ccc2C)cc1` [Example 73, N-[5-(5-Cyano-thiophen-3-yl)-2-methyl-phenyl]-4-methoxy-benzenesulfonamide], the EC50 (in the assay with MCF7 cells; in the assay on HG1 cells; in assay [2]) was less than 500 nM throughout.
Compound `Cc1ccc(S(=O)(=O)Nc2cc(-c3ccc(C#N)c(C)c3)ccc2C)cc1` [Example 72, N-(4′-Cyano-4,3′-dimethyl-biphenyl-3-yl)-4-methyl-benzenesulfonamide] had an EC50 in the assay on MCF7 cells of less than 500 nM. This compound also displayed an IC50 in assay [1] of less than 500 nM. Besides, the inhibition at 10 µM on tubulin was less than 20%.
Take `Cc1ccc(S(=O)(=O)Nc2cc(-c3ccccn3)ccc2C)cc1` [Example 19, 4-Methyl-N-(2-methyl-5-pyridin-2-yl-phenyl)-benzenesulfonamide]: the EC50 is 500 to 1000 nM in the assay on MCF7 cells and less than 500 nM in the assay on HG1 cells.
On to `Cc1ccc(S(=O)(=O)Nc2cc(-c3ccsc3)ccc2C)cc1` [Example 8, 4-Methyl-N-(2-methyl-5-thiophen-3-yl-phenyl)-benzenesulfonamide], for which the EC50 (in the assay with MCF7 cells; with HG1 cells; in assay [2]) was less than 500 nM each time.
As to `COc1ccc(S(=O)(=O)Nc2cc(-c3cc(C#N)cs3)ccc2C)cc1` [Example 56, N-[5-(4-Cyano-thiophen-2-yl)-2-methyl-phenyl]-4-methoxy-benzenesulfonamide], the EC50 in the assay on MCF7 cells and in the assay on caspase-3/7 was less than 500 nM in each case. At tubulin, this compound registered an inhibition at 10 µM of more than 50%.
Take `Cc1ccc(S(=O)(=O)Nc2cc(-c3ccc(C)o3)ccc2C)cc1` [Example 3, 4-Methyl-N-[2-methyl-5-(5-methyl-furan-2-yl)-phenyl]-benzenesulfonamide]: the concentration giving a half-maximal response (EC50) (with MCF7 cells; in assay [2]) was less than 500 nM in each case. Besides, at tubulin, the inhibition at 10 µM is more than 50%.
For `COc1ccc(S(=O)(=O)Nc2cc(-c3ccc(C#N)cc3)ccc2C)cc1` [Example 63, N-(4′-Cyano-4-methyl-biphenyl-3-yl)-4-methoxy-benzenesulfonamide], the EC50 in the assay with MCF7 cells and in the assay on caspase-3/7 was less than 500 nM each time. The compound further showed an inhibition at 10 µM against tubulin of less than 20%.
In the case of `Cc1ccc(S(=O)(=O)Nc2cc(-n3cnnc3)ccc2C)cc1` [Example 22, 4-Methyl-N-(2-methyl-5-[1,2,4]triazol-4-yl-phenyl)-benzenesulfonamide], the figures for the EC50 with MCF7 cells and in the assay on HG1 cells were 1000 to 10000 nM and less than 500 nM, respectively.
In the assay with MCF7 cells, `COc1ccc(S(=O)(=O)Nc2cc(-c3c(C)noc3C)ccc2C)cc1` [Example 16, N-[5-(3,5-Dimethyl-isoxazol-4-yl)-2-methyl-phenyl]-4-methoxy-benzenesulfonamide] gave an EC50 of less than 500 nM. At tubulin, the inhibition at 10 µM was 20 to 50%.
In the case of `Cc1ccc(S(=O)(=O)Nc2cc(-c3ccc(C)s3)ccc2C)cc1` [Example 11, 4-Methyl-N-[2-methyl-5-(5-methyl-thiophen-2-yl)-phenyl]-benzenesulfonamide], the EC50 with MCF7 cells is less than 500 nM. Moreover, the inhibition at 10 µM against tubulin was 20 to 50%.
As to `Cc1ccc(S(=O)(=O)Nc2cc(-c3cscc3C)ccc2C)cc1` [Example 23, 4-Methyl-N-[2-methyl-5-(4-methyl-thiophen-3-yl)-phenyl]-benzenesulfonamide], the EC50 (with MCF7 cells; in assay [2]) was less than 500 nM each time. Moreover, at tubulin, the inhibition at 10 µM was more than 50%.
With `Cc1ccc(S(=O)(=O)Nc2cc(-n3cccc3)ccc2C)cc1` [Example 15, 4-Methyl-N-(2-methyl-5-pyrrol-1-yl-phenyl)-benzenesulfonamide], the EC50 with MCF7 cells and in the assay on HG1 cells was less than 500 nM in each case. For the same compound, the IC50 in assay [1] is less than 500 nM.

One may read the EC50 as the concentration that produces a half-maximal response. High values mean a less potent agent, low ones a more potent agent. In general, IC50 refers to the point on the concentration scale where inhibition reaches its midpoint. A high value points to weaker potency in that assay. The term inhibition denotes the percentage by which the read-out fell short of the control. Low readings indicate a weak effect, high ones a strong effect.
